Test results published in patent publication US11530216B2, “Deuterated colony stimulating factor-1 receptor (CSF-1R) inhibitors” (Genzyme Corporation, priority 2020, dated 2022).
Where two headings read alike, the source gives them in different places.

What was measured:
[1] = tested on: MCP-1 production in BV2 murine microglial cells; assay: MCP-1 ELISA, BV2 microglial cells after CSF-1 stimulation; assay type: cell-based; conditions: Mus musculus, BV-2, 30 min pre-treatment, 100 ng/mL M-CSF 24 hours
Procedure: Microglia cells were allowed to rest overnight at 37° C., 5% CO2. […] After stimulation, the culture supernatant was removed from each well and aliquoted into two different 96-well plates for subsequent ELISA assays.

Caco-2 efflux assay = assay type: in vitro ADME; conditions: human
Procedure: Caco-2 permeability and efflux assays were performed in cell-based permeability model using Caco-2/TC7 cells. For permeability assays, Caco-2/TC7 cells were seeded on to Millipore Millicell 96 and for efflux assays, 24-well plates were used. The plates with cells were ready to use between 21-25 days of culturing. Both permeability and efflux assays were performed using the TECAN automated liquid handling platform. For permeability assays, test compounds were prepared at 20 μM test concentrations in permeability assay buffer (10 mM HEPES in HBSS buffer, pH 6.5) containing 0.5% BSA. Basolateral permeability buffer (pH 7.4) contains 5% BSA. For efflux assays, test compounds were prepared at 1 μM test concentrations in permeability assay buffer (10 mM HEPES in HBSS buffer, pH 7.4) containing 0.5% BSA. For efflux assays, the basolateral permeability buffer (pH 7.4) contained 0.5% BSA. The permeability assay was initiated by adding 20 μM test solution to apical side of plate containing Caco-2/TC7 cells. In the efflux assay, 1 μM test compound was added to an apical compartment for apical to basolateral (A to B) permeability determination. For basolateral to apical (B to A) permeability determination, the test compound was added to the basolateral side. The plate was incubated for 90 min under constant shaking at 37° C. At the end of the incubation period, samples taken were analyzed using high pressure liquid chromatography with tandem mass spectrometry. For each assay, apparent permeability (Papp) and recovery was calculated from mass spectrometry data. For permeability assay, Papp values are reported as numbers×10^−07 cm/s. For efflux assays, the efflux ratio is calculated using Papp (basolateral to apical) to Papp (apical to basolateral), in addition to recovery values.

CYP3A4 = CYP3A4 (Homo sapiens (Human), UniProt P08684); assay: CYP inhibition in human liver microsomes, CYP3A4; assay type: in vitro ADME
CYP3A4, sequence (P08684 whole entry): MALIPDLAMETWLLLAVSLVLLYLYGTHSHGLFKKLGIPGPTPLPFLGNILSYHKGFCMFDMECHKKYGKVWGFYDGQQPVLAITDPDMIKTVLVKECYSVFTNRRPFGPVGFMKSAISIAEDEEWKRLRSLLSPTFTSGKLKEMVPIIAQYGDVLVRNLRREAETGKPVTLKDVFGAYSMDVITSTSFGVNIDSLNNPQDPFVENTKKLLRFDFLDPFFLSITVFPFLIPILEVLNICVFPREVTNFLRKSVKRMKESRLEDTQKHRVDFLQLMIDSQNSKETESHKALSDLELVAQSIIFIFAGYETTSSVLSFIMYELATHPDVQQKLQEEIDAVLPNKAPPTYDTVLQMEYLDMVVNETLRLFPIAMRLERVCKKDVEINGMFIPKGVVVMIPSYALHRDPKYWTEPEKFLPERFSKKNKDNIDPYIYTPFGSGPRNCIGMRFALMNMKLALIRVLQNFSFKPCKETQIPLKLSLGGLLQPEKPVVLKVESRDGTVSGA
Procedure: (§1) The objective of this assay method was to determine the inhibitory potential of test articles, in vitro, against specific cytochrome P450 (CYP) enzymes, using human liver microsomes (HLMs). The test compounds were diluted from pure DMSO stocks to a final test concentration range of 10 μM-0.07 μM in a 0.5% DMSO solution. […] After incubation, the samples were extracted, and protein precipitated in acetonitrile containing 0.1% formic acid. The samples were centrifuged to remove excess protein, and were analyzed by LDTD/MS/MS to determine IC50 values. Key concentrations of substrates were as follows: CYP2D6 Substrate—Dextromethorphan at 10 μM. CYP3A4 Substrates—Testosterone at 60 μM, and Midazolam at 2 μM. Dextromethorphan and testosterone were incubated with the test compounds for 30 minutes each. Midazolam was incubated with the test compounds for 10 minutes.

CYP2D6 = CYP2D6 (Homo sapiens (Human), UniProt P10635); assay: CYP inhibition in human liver microsomes, CYP2D6; assay type: in vitro ADME; conditions: dextromethorphan 10 μM, 30 min, read-out: CYP inhibition mean IC50 (INH) isoform: CYP2D6 Substrate: dextromethorphan
CYP2D6, sequence (P10635 whole entry, canonical isoform): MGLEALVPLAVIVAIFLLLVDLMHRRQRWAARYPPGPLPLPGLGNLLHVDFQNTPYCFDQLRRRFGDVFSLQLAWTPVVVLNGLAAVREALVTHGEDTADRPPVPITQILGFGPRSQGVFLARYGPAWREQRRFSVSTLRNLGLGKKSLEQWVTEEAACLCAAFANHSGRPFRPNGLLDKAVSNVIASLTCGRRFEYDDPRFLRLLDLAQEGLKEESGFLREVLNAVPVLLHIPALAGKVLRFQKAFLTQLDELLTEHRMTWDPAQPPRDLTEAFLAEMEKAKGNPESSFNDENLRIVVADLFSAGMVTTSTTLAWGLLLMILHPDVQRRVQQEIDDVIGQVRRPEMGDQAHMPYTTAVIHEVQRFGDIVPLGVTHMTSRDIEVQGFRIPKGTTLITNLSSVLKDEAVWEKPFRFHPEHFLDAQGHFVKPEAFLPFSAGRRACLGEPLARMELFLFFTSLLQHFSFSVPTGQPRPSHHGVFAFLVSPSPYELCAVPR
Procedure: as §1

[2] = Rat hepatocyte intrinsic clearance; assay type: in vitro ADME; conditions: 1 μM, 0.5 million cells/mL
Procedure: (§2) Incubations were performed in 0.5 million hepatocytes cells/mL at 1 μM concentration of test compound in duplicate with rat, human, dog, monkey, or mouse hepatocytes, and the concentration-time course of test compound depletion was determined after withdrawing samples from the incubation at assay time points followed by liquid chromatography with tandem mass spectrometry analysis. An organic solvent was used to terminate incubations.

[3] = Human liver cytosol intrinsic clearance; assay type: in vitro ADME; conditions: human, cytosol
Procedure: as §2, with “1 mg/mL human liver cytosol with high aldehyde oxidase (AO)/xanthine oxidase (XO) activity or 2.5 mg/mL human liver S-9 fraction with high AO/XO activity” for “0.5 million hepatocytes cells/mL”, “duplicate,” for “duplicate with rat, human, dog, monkey, or mouse hepatocytes,”
These available known AO substrates along with the test compounds were analyzed using three in vitro systems (pooled human liver cytosol, liver S-9 fractions and human hepatocytes isolated from livers perfused with HTK media). Scaled unbound intrinsic clearances were calculated for the test compounds/new chemical entities and were compared to the in vivo unbound intrinsic clearances of the known AO substrates.

[4] = Metabolite profiles in human cryopreserved hepatocytes in absence and presence of AO inhibitor hydralazine; assay type: in vitro ADME; conditions: 2 hours; for % of Total (integrated MS peak areas), Human Hepatocytes: absence of hydralazine; for % of Total (integrated MS peak areas), Human Hepatocytes + Hydralazine: hydralazine 10 μM
Procedure: After study sampling, the remaining samples from triplicate incubations were combined and processed for the metabolite identification study.
(§3) To each sample was added equal amounts of ice-cold acetonitrile (v/v) and the samples were then vortex mixed. Following centrifugation at approximately 13,000 rpm for 10 minutes, the supernatants were concentrated under nitrogen flow at 35° C. until approximately 0.1-0.2 mL of extract remained. Prior to analysis, the remaining extract was centrifuged at approximately 13,000 rpm for 15 minutes. The supernatant was injected into LC/UV/MS for analysis.
Metabolite identification was performed on UPLC (Thermo Vanquish) coupled with UV (Thermo Vanquish) and mass spectrometry (MS) detection (Thermo Orbitrap ID-X).
The mass peak areas were used for metabolite profiling, due to low sample concentrations. […] Metabolites having a peak area that accounts for equal to or more than 0.1% of the toral integrated MS peaks areas are reported in Table 1 below.
The metabolites are characterized based on their accurate masses (tolerance ≤5 ppm), mass fragmentation patterns, and comparison with other in vitro studies.
After study sampling, the remaining samples from triplicate incubations were combined and processed for metabolite identification study.
as §3, with “were” for “were then”, “was” for “were”
The mass peak areas are used for metabolite profiling, due to low sample concentrations. […] Metabolites having a peak area that accounts for equal to or more than 0.1% of the toral integrated MS peaks areas are reported in Table 2 below.
The metabolites are characterized based on their accurate masses (tolerance≤5 ppm), mass fragmentation patterns, and comparison with other in vitro studies.

[5] = midazolam 2 μM, 10 min, read-out: CYP inhibition mean IC50 (INH) Isoform: CYP3A4 Substrate: midazolam
[6] = testosterone 60 μM, 30 min, read-out: CYP inhibition mean IC50 (INH) Isoform: CYP3A4 Substrate: testosterone
[7] = Human Liver Cytosol Intrinsic Clearance _1
[8] = Human Liver Cytosol Intrinsic Clearance _2
[9] = incubation of Compound 24, 1 μM

SMILES | IC50 [1] [µM] | Papp A→B at 90 min, 1 μM (Caco-2 efflux assay) [×10⁻⁶ cm/s] | Papp B→A at 90 min, 1 μM (Caco-2 efflux assay) [×10⁻⁶ cm/s] | recovery at 90 min, 1 μM (Caco-2 efflux assay; read-out: Recovery A to B) [%] | recovery at 90 min, 1 μM (Caco-2 efflux assay; read-out: Recovery B to A) [%] | IC50 (CYP3A4; [5]) [µM] | IC50 (CYP3A4; [6]) [µM] | IC50 (CYP2D6) [µM] | Rat Hepatocyte Intrinsic Clearance [2] [μL/min/10^7 cells] | CLint scaled at 1 μM [3] [mL/min/kg] | microsomal CLint at 1 μM [3, 7] [µL/min/mg] | microsomal CLint at 1 μM [3, 8] [µL/min/mg] | % of Total (integrated MS peak areas), Human Hepatocytes ([4]; incubation of Compound 6, 1 μM) [%] | % of Total (integrated MS peak areas), Human Hepatocytes + Hydralazine ([4]; incubation of Compound 6, 1 μM) [%] | % of Total (integrated MS peak areas), Human Hepatocytes [4, 9] [%] | % of Total (integrated MS peak areas), Human Hepatocytes + Hydralazine [4, 9] [%]
[2H]c1nc2cccnc2n1Cc1cc(OC)c2c(c1)O[C@@H](C)[C@H](c1ccc(OC)nc1)O2 [Compound 6, 3-(((2S,3S)-8-methoxy-2-(6-methoxypyridin-3-yl)-3-methyl-2,3-dihydrobenzo[b][1,4]dioxin-6-yl)methyl)-3H-imidazo[4,5-b]pyridine-2-d] | 0.0288 to 0.0365 | 13.5 | 29.2 | 88 | 82.5 | > 10 | > 10 | > 10 | 9.00 | 3.9 | 1.5 | 2.2 | 87.1 | 92.0 | – | –
COc1ccc(C2Oc3c(OC)cc(Cn4cnc5cccnc54)cc3O[C@H]2C)cn1 (stereo partly shown) [Compound 24] | 0.0288 to 0.0365 | 12.5 | 25.6 | 93 | 94 | > 10 | > 10 | > 10 | 8.72 | 10.5 | 5.1 | 5 | – | – | 72.2 | 90.9
